{"source": "patent US20060058275A1", "about": "“Processes for preparing stabilized, highly pure rocuronium bromide” (priority 2004, published 2006)", "assay_type_in_all_cases": "physicochemical", "key": {"[1]": {"test": "decomposition of rocuronium bromide in water at room temperature", "conditions": "aqueous solution, in 24 hours", "source_text": "While freeze drying of the aqueous solution did reduce the isobutyl acetate level to an acceptable level of 0.26%, the impurity levels rose to 0.33%. […] This inherent instability in aqueous solution may explain thc observed rise in the impurities level in our hands."}, "[2]": {"test": "nature of product freeze dried from unbuffered degassed water (Example 5)", "conditions": "Example 5: dissolved in degassed water and freeze dried, no buffer", "description": "Rocuronium bromide (2 grams) prepared according to example 1 and dried in a manner similar to entries 1 and 2 in table 2 (see example 4), was dissolved in degassed water (30 ml) and freeze dried."}, "[3]": {"test": "hygroscopicity test at relative humidity of about 45%", "conditions": "within 24 hours, sample containing 3.1% acetic acid (stabilized solid of the invention)", "description": "In another aspect, the present invention relates to an improved process for preparing a stable solid comprising substantially pure rocuronium bromide, which is substantially non-hygroscopic, because when subjected to hygroscopisity test at relative humidity of about 45%, a sample containing 3.1% acetic acid absorbed only about 2% water within 24 hours."}}}
{"smiles": "C=CC[N+]1(C2CC3C4CC[C@H]5C[C@H](O)C(N6CCOCC6)C[C@]5(C)C4CC[C@]3(C)[C@H]2OC(C)=O)CCCC1.[Br-]", "note": "(stereo partly drawn) [rocuronium bromide, 1-[(2β,3α,5α,16β,17β)-17-acetoxy-3-hydroxy-2-(4-morpholinyl)-androstan-16-yl-]-1-(2-propenyl)pyrrolidinium bromide]", "values": [{"measurement": "decomposition rate in water", "setting": "[1]", "result": "0.25-0.5%"}, {"measurement": "hygroscopicity of product", "setting": "[2]", "result": "highly hygroscopic"}, {"measurement": "water absorbed", "setting": "[3]", "result": "about 2%"}]}
